Results taken from patent US10245240B2, “Treatment of prostate carcinoma” (Pellficure Pharmaceuticals, Inc., priority 2010, dated 2019).

Experiments:
PTEN-P2/GFP tumor = assay: In vivo effect of plumbagin added two weeks after castration, pseudo-orthotopic chamber model (Example 6); set-up: species or system nude mice; settings: daily plumbagin ip 2 mg/kg, from two weeks after castration
Experimental: Intravital microscopy: Fluorescence microscopy is performed using a Mikron Instrument Microscope equipped with epi-illuminator and video-triggered stroboscopic illumination from a xenon arc (MV-7600, EG&G). A silicon intensified target camera (SIT68, Dage-MTI) is attached to the microscope. A Hamamatsu image processor (Argus 20) with firmware version 2.50 (Hamamatsu Photonic System) is used for image enhancement and for the capture of images to a computer. A Zeiss Plan Neofluar 1.25×/0.035 objective is used to obtain an over-view of the chamber and to determine tumor size. A Zeiss A-Plan 10×/0.25 objective is used to capture images for calculation of vascular parameters. A Zeiss Achroplan 20×/0.5 W objective is used to capture images for calculation of mitotic and apoptotic indices. Our system permits evaluation of the following parameters.
Mitotic and Apoptotic Indices: At each time point, two peripheral and two central ×20 fields of the tumor are captured with a FITC filter and an integrated frame grabber. Only mitotic figures in metaphase-telophase (MI) are included in the mitotic indices to exclude the potential artifact of nuclear membrane distortion. Apoptotic/Pyknotic nuclei are defined as H2B-GFP labeled nuclei with a cross sectional area <30 μm^2. Nuclear karyorrhexis (NK), easily distinguishable by the vesicular nuclear condensation and brightness of H2B-GFP, is included within this apoptotic indices.
Platinum chambers were placed in the dorsal skinfold of nude mice by surgery. Two days later, minced prostate tissue from BalbC mice (syngeneic) was grafted into the chambers and allowed to vascularize for 7 to 10 days. Small tumor cells spheroids were implanted into each chamber. Tumor cells PTEN-P2 stably transfected with H2B-GFP fusion protein (PTEN-P2/GFP) were used in these experiments. The animals were surgically castrated about three weeks after implantation to inhibit androgen production. Surgical castration induces androgen deprivation, and is known in the art to effectively mimic clinical hormone therapy. Two weeks after castration, the mice were treated daily with plumbagin at 2 mg/kg ip.

fibrosarcomas = settings: cited from earlier work
[1] = system: LNCaP hormone-sensitive human prostate cancer cells; assay: Dose response plumbagin in human LNCaP cells, cell counting in absence of DHT; assay type: cell-based; settings: no DHT; for % control / cell number/20 mean / cell number/20 trial 1 / cell number/20 trial 2 / cell number/20 trial 3 / cell number/20 trial 4: 24 hours
Experimental: LNCaP hormone-sensitive human prostate cancer cells were placed in androgen withdrawal medium in the absence of DHT (dihydrotestosterone). The absence of DHT simulates surgical or chemical castration. The androgen withdrawal medium was phenol-red free DMEM high-glucose containing 10% charcoal-treated Fetal Bovine Serum.
Plumbagin was added at the indicated concentrations in Table 6 for 24 hours. Cells were trypsinized and counted using a Cell Coulter counter Multisizer II, which excludes debris. The results in Table 6 represent cell numbers as percent of control (in which the number of cells in the absence of drug is 100%). FIG. 8 illustrates the effect of plumbagin in human LNCaP cells.

hepatoma = settings: in vivo; cited from earlier work
[2] = system: PTEN-P2/GFP prostate cancer cells; assay: Effect of naphthoquinone analogs on PTEN-P2/GFP cell proliferation (CellTiter96 formazan-based viability assay); settings: Mus musculus, 24 h
Experimental: Cell culture: PTEN-P2/GFP are cells that stably express histone H2B-GFP fusion protein.
Cells are grown in DMEM medium containing 10% FBS, 2 mM L-glutamine, 100 U/ml penicillin/100 μg/ml streptomycin, insulin-selenium-transferrin (5 μg/ml insulin), and DHT 10^−8 M final. Androgen withdrawal is achieved by keeping the cells in phenol red-free DMEM medium containing 10% charcoal-treated FBS and the same supplements as in the normal medium except for DHT. Cells are maintained in a humidified incubator at 37° C. and 5% CO2. G418 (100 μg/ml) is added to maintain stable expression of H2B-GFP.
PTEN-P2/GFP prostate cancer cells were plated at a density of 8000 cells/well in 96-well plates (triplicates) in growing medium containing 10% Fetal Bovine Serum and DHT. The next day, increasing concentrations of a naphthoquinone analog (diluted from 10 mM DMSO stock solutions) were incubated for 24 hrs. Cell viability was determined by the formazan-based cytotoxicity assay “CellTiter96Aquaeous nonradioactive proliferation assay” (Promega).

prostate carcinoma cells = settings: 5 umol/L; cited from earlier work
[3] = system: hormone-refractory prostate cancer; settings: Aziz et al., Cancer Res. 2008; cited from earlier work

SMILES: CC1=CC(=O)c2c(O)cccc2C1=O [Plumbagin, 5-hydroxy-2-methylnaphthalene-1,4-dione]
- apoptosis (AP) in tumor (PTEN-P2/GFP tumor): increasing apoptosis
- efficiency of combination of plumbagin with castration versus castration alone (PTEN-P2/GFP tumor): more efficient in vivo than castration alone
- mitosis (MI) in tumor (PTEN-P2/GFP tumor): mitosis increased
- tumor size, castration with plumbagin (PTEN-P2/GFP tumor): significant decreases in tumor size
- ED50 (fibrosarcomas): 0.75 mg/kg body weight
- % control ([1]; 0.5 μM plumbagin): 84.13%
- cell number/20 mean ([1]; 0.5 μM plumbagin): 6335
- cell number/20 trial 1 ([1]; 0.5 μM plumbagin): 6422
- cell number/20 trial 2 ([1]; 0.5 μM plumbagin): 5989
- cell number/20 trial 3 ([1]; 0.5 μM plumbagin): 6453
- cell number/20 trial 4 ([1]; 0.5 μM plumbagin): 6475
- % control ([1]; 1 μM plumbagin): 90.95%
- cell number/20 mean ([1]; 1 μM plumbagin): 6849
- cell number/20 trial 1 ([1]; 1 μM plumbagin): 6997
- cell number/20 trial 2 ([1]; 1 μM plumbagin): 7139
- cell number/20 trial 3 ([1]; 1 μM plumbagin): 6769
- cell number/20 trial 4 ([1]; 1 μM plumbagin): 6490
- % control ([1]; 2 μM plumbagin): 66.23%
- cell number/20 mean ([1]; 2 μM plumbagin): 4987
- cell number/20 trial 1 ([1]; 2 μM plumbagin): 5324
- cell number/20 trial 2 ([1]; 2 μM plumbagin): 5282
- cell number/20 trial 3 ([1]; 2 μM plumbagin): 4522
- cell number/20 trial 4 ([1]; 2 μM plumbagin): 4821
- % control ([1]; 4 μM plumbagin): 42.21%
- cell number/20 mean ([1]; 4 μM plumbagin): 3179
- cell number/20 trial 1 ([1]; 4 μM plumbagin): 3005
- cell number/20 trial 2 ([1]; 4 μM plumbagin): 3082
- cell number/20 trial 3 ([1]; 4 μM plumbagin): 3327
- cell number/20 trial 4 ([1]; 4 μM plumbagin): 3300
- % control ([1]; 6 μM plumbagin): 18.50%
- cell number/20 mean ([1]; 6 μM plumbagin): 1393
- cell number/20 trial 1 ([1]; 6 μM plumbagin): 1396
- cell number/20 trial 2 ([1]; 6 μM plumbagin): 1500
- cell number/20 trial 3 ([1]; 6 μM plumbagin): 1323
- cell number/20 trial 4 ([1]; 6 μM plumbagin): 1352
- % control ([1]; 8 μM plumbagin): 3.93%
- cell number/20 mean ([1]; 8 μM plumbagin): 296
- cell number/20 trial 1 ([1]; 8 μM plumbagin): 330
- cell number/20 trial 2 ([1]; 8 μM plumbagin): 283
- cell number/20 trial 3 ([1]; 8 μM plumbagin): 284
- cell number/20 trial 4 ([1]; 8 μM plumbagin): 287
- efficiency of plumbagin with simulated castration versus castration alone ([1]; in vitro, LNCaP cells): more efficient than treatment castration alone
- effect on hepatoma (hepatoma): induced regression of hepatoma
- IC50 [2]: 4.55 µM
- viability at 1 µM ([2]; 1 μM, medium with 10% FBS and DHT): 94.6%
- viability at 2 µM ([2]; 2 μM, medium with 10% FBS and DHT): 90.9%
- viability at 3 µM ([2]; 3 μM, medium with 10% FBS and DHT): 88.9%
- viability at 4 µM ([2]; 4 μM, medium with 10% FBS and DHT): 73%
- viability at 5 µM ([2]; 5 μM, medium with 10% FBS and DHT): 32.9%
- viability at 7 µM ([2]; 7 μM, medium with 10% FBS and DHT): 0.4%
- viability at 10 µM ([2]; 10 μM, medium with 10% FBS and DHT): 0.6%
- expression of PKCq, PI3K, AKT, activation of AP-1, NF-κB, Stat3 (prostate carcinoma cells): inhibit expression of multiple molecular targets
- effect on growth and invasion of hormone-refractory prostate cancer [3]: inhibited growth and invasion of hormone-refractory prostate cancer
